Assay [1] has as its system Streptococcus pneumoniae 1/1. Put plainly: MIC against Streptococcus pneumoniae 1/1. Format: cell-based. Conditions: Table 2, Streptococcus pneumoniae 1/1, trimethoprim- and penicillin-resistant, serotype 6, clinical isolate; for MIC: read-out: MIC Sp1/1.
The target in assay [2] is purified DHFR of strain 157/4696 of Staphylococcus aureus (Staphylococcus aureus, UniProt P13955). Put plainly: biochemical.
The subject of assay [3] is Staphylococcus aureus 101. Put plainly: MIC against Staphylococcus aureus 101. Format: cell-based. Conditions: Table 2, Staphylococcus aureus 101, MRSA- and trimethoprim-resistant, clinical isolate; for MIC: read-out: MIC Sa101.
Assay [4] deals with T1, purified DHFR of strain Sp1/1 of Streptococcus pneumoniae (Streptococcus pneumoniae serotype 4, UniProt Q54801).
T1 sequence (Q54801 1-168 I100L): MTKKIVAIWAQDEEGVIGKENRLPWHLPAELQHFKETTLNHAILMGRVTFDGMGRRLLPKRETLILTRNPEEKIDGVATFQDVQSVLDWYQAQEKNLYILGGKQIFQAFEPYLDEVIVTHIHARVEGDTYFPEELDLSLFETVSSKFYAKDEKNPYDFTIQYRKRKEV
Format: biochemical. Conditions: Table 2; IC50 against purified DHFR of strain Sp1/1.

The structures appear in SMILES notation. In brackets after ≈: the same amount, converted by molar mass. Like-named read-outs stand apart in the source and are kept apart here.

Sequence of purified DHFR of strain 157/4696 of Staphylococcus aureus (P13955 whole entry): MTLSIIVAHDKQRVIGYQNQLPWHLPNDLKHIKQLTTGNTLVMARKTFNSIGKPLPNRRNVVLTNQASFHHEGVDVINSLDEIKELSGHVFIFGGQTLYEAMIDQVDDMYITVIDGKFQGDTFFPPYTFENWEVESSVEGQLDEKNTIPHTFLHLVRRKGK

For `CCOc1cc(Cc2cnc(N)nc2N)cc(OCC)c1-c1ccc(NC(=O)CN2CCOCC2)cc1` [Example 04-g, N-[4′-(2,4-Diamino-pyrimidin-5-ylmethyl)-2′,6′-diethoxy-biphenyl-4-yl]-2-morpholin-4-yl-acetamide], the MIC was 4 µg/mL (≈ 7.9 µM) in assay [1] and 8 µg/mL (≈ 15.8 µM) in assay [3]. Besides, the IC50 in assay [2] was determined as 1100 nM; in assay [4], 40 nM.
Consider `CCOc1cc(Cc2cnc(N)nc2N)cc(OCC)c1-c1ccc(N)c(C#N)c1` [Example 04-h, 4-Amino-4′-(2,4-diamino-pyrimidin-5-ylmethyl)-2′,6′diethoxy-biphenyl-3-carbonitrile], for which the MIC was found to be 2 µg/mL (≈ 4.94 µM) in assay [1] and 4 µg/mL (≈ 9.89 µM) in assay [3]. Further, the IC50 in assay [2] was 1000 nM; in assay [4] it was 42 nM.
For `CCOc1cc(Cc2cnc(N)nc2N)cc(OCC)c1-c1ccc(OC)c(N)c1` [Example 04-i, 5-(3′-Amino-2,6-diethoxy-4′-methoxy-biphenyl-4-ylmethyl)-pyrimidine-2,4-diamine], in that order: 4 µg/mL (≈ 9.77 µM), 8 µg/mL (≈ 19.5 µM), 1200 nM and 43 nM.
Turning to `CCOc1cc(Cc2cnc(N)nc2N)cc(OCC)c1-c1ccc(CN2CCOCC2)c(N)c1` [Example 04-j, 5-(3′-Amino-2,6-diethoxy-4′-morpholino-4-ylmethy-biphenyl)-pyrimidine-2,4-diamine], in assay [1], the “MIC Sp1/1” value was 4 µg/mL (≈ 8.36 µM). Besides, the IC50 turned out to be 850 nM in assay [2] (Table 2, IC50 against purified DHFR of strain 157/4696 (highly trimethoprim-resistant; clinical isolate), read-out: DHFR Sa1) and 48 nM in assay [4]. Further, the “MIC Sa101” value in assay [3] turned out to be 8 µg/mL (≈ 16.7 µM).
For the molecule `CCOc1cc(Cc2cnc(N)nc2N)cc(OCC)c1-c1cnc(N2CCOCC2)nc1` [Example 04-k, 5-[3,5-Diethoxy-4-(2-morpholin-4-yl-pyrimidin-5-yl)-benzyl]-pyrimidine-2,4-diamine], the results for the MIC in assay [1] and in assay [3] were 4 µg/mL (≈ 8.86 µM) and 8 µg/mL (≈ 17.7 µM), respectively. The results for the IC50 in assay [2] and in assay [4] were 10000 nM and 95 nM, respectively.
Take `CCOc1cc(Cc2cnc(N)nc2N)cc(OCC)c1-c1ccc(N)c(OC)c1` [Example 04-l, 5-(4′-Amino-2,6-diethoxy-3′-methoxy-biphenyl-4-ylmethyl)-pyrimidine-2,4-diamine]: the MIC in assay [1] stood at 4 µg/mL (≈ 9.77 µM); in assay [3], 8 µg/mL (≈ 19.5 µM). Further, the IC50 worked out at 1900 nM in assay [2] and 82 nM in assay [4].
For `CCOc1cc(Cc2cnc(N)nc2N)cc(OCC)c1-c1ccc2ncccc2c1` [Example 04-m, 5-(3,5-Diethoxy-4-quinolin-6-yl-benzyl)-pyrimidine-2,4-diamine], the MIC in assay [1] and in assay [3] was 8 µg/mL (≈ 19.3 µM) each time. In addition, the IC50 in assay [2] came out at 1800 nM; in assay [4], 72 nM.
Regarding `CCOc1cc(Cc2cnc(N)nc2N)cc(OCC)c1-c1ccc(F)c(N)c1` [Example 04-n, 5-(3′-Amino-2,6-diethozy-4′-fluoro-biphenyl-4-ylmethyl)-pyrimidine-2,4-diamine], the MIC in assay [1] was 2 µg/mL (≈ 5.03 µM); in assay [3] it was 8 µg/mL (≈ 20.1 µM). The IC50 worked out at 1400 nM in assay [2] and 68 nM in assay [4].
Regarding `CCOc1cc(Cc2cnc(N)nc2N)cc(OCC)c1-c1ccc(S(N)(=O)=O)cc1` [Example 04-o, 4′-(2,4-Diamino-gyrimidin-5-ylmethyl)-2′,6′-diethoxy-biphenyl-4-sulphonic acid amide], the MIC in assay [1] and in assay [3] was 8 µg/mL (≈ 18 µM) in each case. Also, the IC50 in assay [2] came out at 1300 nM; in assay [4], 60 nM.
For `CCOc1cc(Cc2cnc(N)nc2N)cc(OCC)c1-c1ccc(N)nc1` [Example 04-q, 5-[4-(6-Amino-pyridin-3-yl)-3,5-diethoxy-benzyl]-pyrimidine-2,4-diamine], the values for the MIC in assay [1] and in assay [3] were 4 µg/mL (≈ 10.5 µM) and 8 µg/mL (≈ 21 µM), respectively. Besides, the IC50 in assay [2] is 1900 nM; in assay [4], 69 nM.
With `CCOc1cc(Cc2cnc(N)nc2N)cc(OCC)c1-c1ccc(N)c(F)c1` [Example 04-r, 5-(4′-Amino-2,6-diethoxy-3′-fluoro-biphenyl-4-3dmethyl)-Ryrimidine-2,4-diamine], the MIC stood at 4 µg/mL (≈ 10.1 µM) in assay [1] and 8 µg/mL (≈ 20.1 µM) in assay [3]. Also, the values for the IC50 in assay [2] and in assay [4] were 3200 nM and 85 nM, respectively.
Regarding `CCOc1cc(Cc2cnc(N)nc2N)cc(OCC)c1-c1cc(N)cc(F)c1` [Example 04-t, 5-(5′-Amino-2,6-diethoxy-3′-fluoro-biphenyl-4-ylmethyl)-pyrimidine-2,4-diamine], the MIC in assay [1] amounted to 2 µg/mL (≈ 5.03 µM); in assay [3], 8 µg/mL (≈ 20.1 µM). Besides, the IC50 in assay [2] came to 1200 nM; in assay [4], 31 nM.
Regarding `CCOc1cc(Cc2cnc(N)nc2N)cc(OCC)c1-c1cccc(C=O)c1` [Example 04-u, 4′-(2,4-Diamino-pyrimidin-5-ylmethyl)-2′,6′-diethoxy-biphenyl-3-carbaldehyde], the MIC in assay [1] stood at 4 µg/mL (≈ 10.2 µM); in assay [3] it was 8 µg/mL (≈ 20.4 µM). The IC50 came to 1900 nM in assay [2] and 65 nM in assay [4].
As for `CCOc1cc(Cc2cnc(N)nc2N)cc(OCC)c1-c1ccc(CNCC(F)(F)F)cc1` [Example 04-v, 5-[2,6-Diethoxy-4′-[(2,2,2-trifluoroethylamino)-methyl]-biphenyl-4-ylmethyl]-pyrimidine-2,4-diamine], the MIC was 4 µg/mL (≈ 8.41 µM) in assay [1] and 8 µg/mL (≈ 16.8 µM) in assay [3]. Also, the IC50 in assay [2] turned out to be 1300 nM; in assay [4], 150 nM.
For `CCOc1cc(Cc2cnc(N)nc2N)cc(OCC)c1-c1ccc(CN2CCC(=O)N2)cc1` [Example 04-w, 1-[4′-(2,4-Diamino-pyrimidin-5-lmethyl)-2′,6′-diethoxy-biphenyl-4-ylmethyl]-pyrazolidin-3-one], in that order: 8 µg/mL (≈ 17.3 µM), 8 µg/mL (≈ 17.3 µM), 1200 nM and 82 nM.
As for `CCOc1cc(Cc2cnc(N)nc2N)cc(OCC)c1-c1cnc(CN2CCOCC2)nc1` [Example 04-x, 5-[3,5-Diethoxy-4-(2-morpholin-4-ylmethyl-pyrimidin-5-yl)-benzyl]-pyrimidine-2,4-diamine], the MIC in assay [1] and in assay [3] was 8 µg/mL (≈ 17.2 µM) in each case. Besides, the IC50 in assay [2] worked out at 7900 nM; in assay [4], 80 nM.
With `CCOc1cc(Cc2cnc(N)nc2N)cc(OCC)c1-c1ccc(CN2CCCC2)cc1` [Example 04-y, 5-(2,6-Diethoxy-4′-pyrrolidin-1-ylmethyl-biphenyl-4-ylmethyl)-pyrimidine-2,4-diamine], the MIC in assay [1] and in assay [3] was 8 µg/mL (≈ 17.9 µM) throughout. In addition, the IC50 is 890 nM in assay [2] and 92 nM in assay [4].
For the molecule `CCOc1cc(Cc2cnc(N)nc2N)cc(OCC)c1-c1ccc(CN2CCOCC2)c(F)c1` [Example 04-z], the values for the MIC in assay [1] and in assay [3] were 4 µg/mL (≈ 8.31 µM) and 8 µg/mL (≈ 16.6 µM), respectively. Also, the IC50 in assay [2] worked out at 3800 nM; in assay [4], 58 nM.
For `CCOc1cc(Cc2cnc(N)nc2N)cc(OCC)c1-c1cccc(OC)c1` [Example 05-a, 5-(2,6-Diethoxy-3′-methoxy-biphenyl-4-ylmethyl)-pyrimidine-2,4-diamine], in that order: 2 µg/mL (≈ 5.07 µM), 8 µg/mL (≈ 20.3 µM), 6100 nM and 46 nM.
For the molecule `CCOc1cc(Cc2cnc(N)nc2N)cc(OCC)c1-c1ccc(OC)cc1` [Example 05-b, 5-(2,6-Diethoxy-4′-methoxy-biphenyl-4-ylmethyl)-pyrimidine-2,4-diamine], the MIC in assay [1] is 4 µg/mL (≈ 10.1 µM); in assay [3], 16 µg/mL (≈ 40.6 µM). The figures for the IC50 in assay [2] and in assay [4] were 1500 nM and 40 nM, respectively.
In the case of `CCOc1cc(Cc2cnc(N)nc2N)cc(OCC)c1-c1cccc(NC(C)=O)c1` [Example 05-c, N-[4′-(2,4-Diamino-pyrimidin-5-ylmethyl)-2′,6′-diethoxy-biphenyl-3-yl]-acetamide], the figures for the MIC in assay [1] and in assay [3] were 4 µg/mL (≈ 9.49 µM) and 8 µg/mL (≈ 19 µM), respectively. Moreover, the values for the IC50 in assay [2] and in assay [4] were 2600 nM and 30 nM, respectively.
Consider `CCOc1cc(Cc2cnc(N)nc2N)cc(OCC)c1-c1cccc(O)c1` [Example 05-d, 4′-(2,4-Diamino-pyrimidin-5-ylmethyl)-2′,6′-diethoxy-biphenyl-3-ol], for which the MIC is 2 µg/mL (≈ 5.26 µM) in assay [1] and 4 µg/mL (≈ 10.5 µM) in assay [3]. Further, the figures for the IC50 in assay [2] and in assay [4] were 3100 nM and 70 nM, respectively.
Take `CCOc1cc(Cc2cnc(N)nc2N)cc(OCC2(CC#N)CC2)c1-c1cccc(N)c1` [Example 07-b, {1-[3′-Amino-4-(2,4-diamino-pyrimidin-5-ylmethyl)-6-ethoxy-biphenyl-2-yloxymethyl]-cydopropyl}-acetonitrile]: the MIC worked out at 2 µg/mL (≈ 4.5 µM) in assay [1] and 8 µg/mL (≈ 18 µM) in assay [3]. For the same molecule, the values for the IC50 in assay [2] and in assay [4] were 950 nM and 36 nM, respectively.
For the molecule `CCOc1cc(Cc2cnc(N)nc2N)cc(OCC2(COC)CC2)c1-c1cccc(N)c1` [Example 07-c, 5-[3′-Amino-6-ethoxg-2-[(1-methoxymethyl-cyclopropyl)-methoxy]-biphenyl-4-yimethyl]-pyrimidine-2,4-diamine], the MIC in assay [1] stood at 4 µg/mL (≈ 8.9 µM); in assay [3] it was 8 µg/mL (≈ 17.8 µM). The IC50 was 2200 nM in assay [2] and 48 nM in assay [4].
For `CCOc1cc(Cc2cnc(N)nc2N)cc(OC2CCCC2)c1-c1cccc(N)c1` [Example 07-d, 5-(3′-Amino-6-cycloventloxy-2-ethoxy-biphenyl-4-ylmethyl)-pyrimidine-2,4-diamine], in that order: 1 µg/mL (≈ 2.38 µM), 4 µg/mL (≈ 9.53 µM), 680 nM and 8.2 nM.

(Values after US6821980B1, “Substituted 5-benzyl-2,4-diaminopyrimidines” (Basilea Pharmaceutica AG, priority 1999, dated 2004).)
